Experimental data from patent US10519211B2, “Compounds as peptidic GLP1/glucagon/GIP receptor agonists” (SANOFI, priority 2016, dated 2019).
Numbered stars: 1 amine (or outer) side, 2 acyl side, 3 side chain; on linkers, the order of the positions; unused ones are H or OH. Square brackets hold non-standard residues; d marks the D form. Side chains are listed from the residue outwards. Peptide text beside a SMILES is read from it. * marks the point of attachment. Adipoyl(4R-palmitoylamino) = CCCCCCCCCCCCCCCC(=O)N[C@H](CCC(=O)*)CC(=O)O; γGlu = O=C(O)[C@H](CCC(=O)[*:2])N[*:1]; Palmitoyl = CCCCCCCCCCCCCCCC(=O)*; AEEA = NCCOCCOCC(=O)O; Aib = CC(C)(N)C(=O)O

What was measured:
Format in all cases: physicochemical
[1] = Chemical stability assessment (UPLC-UV, relative purity loss); conditions: 1 mg/ml, 25 mM acetate buffer pH 4.5 with m-cresol (buffer system A)
Method: Prior to the chemical stability measurement of a peptide batch, its purity was determined through UPLC/MS. For stability testing the target concentration was 1 mg pure compound/ml. Therefore solutions from solid samples were prepared in a buffer system with a concentration of 1 mg/mL compound based on the previously determined % purity:
Chemical stability buffer system A) 25 mM acetate buffer pH4.5, 3 mg/mL L-Methionine, 2.7 mg/mL m-cresol, 18 mg/mL Glycerol 85%
Peptide solutions were filtered through […] pore size and filled into aliquots under aseptic conditions. At starting point UPLC-UV was performed by injection of 2 μl of the undiluted sample.
For chemical stability testing, aliquots were stored for 28 days at Sand 40° C. After this time course the samples were centrifuged for 15 min at 2500 RCF. Then 2 μl of the undiluted supernatant were analysed with UPLC-UV.
The chemical stability was rated through the relative loss of purity calculated by the equation: [(purity at starting point)−(purity after 28 days at X° C.)]/(purity at starting point)]*100%
The purity is calculated as [(peak area peptide)/(total peak area)]*100%
Peptide samples were prepared in Chemical stability buffer system A and chemical stability was assessed as described in Methods.

[2] = Solubility assessment (UPLC-UV); conditions: acetate buffer pH 4.5, 2.7 mg/ml m-cresol (buffer system A), target 10 mg/ml
Method: Prior to the solubility measurement of a peptide batch, its purity was determined through UPLC/MS.
Therefore solutions from solid samples were prepared in a buffer systems with a concentration of 10 mg/mL compound based on the previously determined % purity:
Solubility buffer system A) Acetate Buffer pH 4.5, 100 mM sodium acetate trihydrate, 2.7 mg/ml m-Cresol
UPLC-UV was performed after 1 hour of gentle agitation from the supernatant, which was obtained after 15 min of centrifugation at 2500 RCF (relative centrifugal acceleration).
The solubility was determined by the comparison of the UV peak area of 2 μL-injection of a buffered sample diluted 1:10 with a standard curve of a reference peptide with known concentration. The different UV extinction coefficients of sample and reference peptide were calculated based on the different amino acid sequences and considered in the concentration calculation.
Peptide samples were prepared in solubility buffer system A and solubility was assessed as described in Methods.

[3] = Thioflavin T (ThT) assay for physical stability (fibrillation); conditions: 3 mg/ml, 100 mM acetate pH 4.5 with m-cresol, shaking at 37° C.
Method: Investigations were carried out to determine fibrillation tendencies under stress conditions by shaking at 37° C. within Fluoroskan Ascent FL.
For the tests in Fluoroskan Ascent FL, 200 μL sample were placed into a 96 well mictrotiter plate PS, flat bottom, Greiner Fluotrac No. 655076. Plates were sealed with Scotch Tape (Quiagen). Samples were stressed by continuous cycles of 10 s shaking at 960 rpm and 50 s rest period at 37° C. The kinetic was monitored by measuring fluorescence intensity every 20 minutes.
Peptides were diluted in a buffer system to a final concentration of 3 mg/ml. 20 μL of a 10.1 mM ThT solution in H2O were added to 2 mL of peptide solution to receive a final concentration of 100 μM ThT. For each sample eight replicates were tested.
Tht buffer system A) 100 mM Acetate pH 4.5 including m-cresol (100 mM Natriumacetat trihydrat, pH adjustment using 2N CH3COOH, 2.7 mg/mL m-cresol) Tht buffer system B) 100 mM citrate buffer pH 6.0
Lag time in hours in Thioflavin T (ThT) assay of peptide samples was determined in Tht buffer system A as described in Methods.

Row | Chemical stability [relative purity loss 28 days 40° C.] (%) at pH 4.5 [1] | solubility at 1 h [2] | Lag time before increase [3] | Structure (SMILES)
1 | 7.2% | > 9900 µg/mL | >45 h | CCCCCCCCCCCCCCCC(=O)N[C@@H](CCC(=O)N[C@@H](CCC(=O)NCCCC[C@H](NC(=O)[C@H](CC(C)C)NC(=O)[C@H](CCCCN)NC(=O)[C@H](CO)NC(=O)[C@H](CC(C)C)NC(=O)[C@H](CC(=O)O)NC(=O)[C@H](CO)NC(=O)[C@@H](NC(=O)[C@H](Cc1ccccc1)NC(=O)[C@@H](NC(=O)CNC(=O)[C@H](CCC(N)=O)NC(=O)C(C)(C)NC(=O)[C@@H](N)Cc1c[nH]cn1)[C@@H](C)O)[C@@H](C)O)C(=O)N[C@@H](CCC(=O)O)C(=O)N[C@@H](CCC(=O)O)C(=O)N[C@@H](CCC(N)=O)C(=O)N[C@@H](CCCNC(=N)N)C(=O)N[C@@H](CCC(N)=O)C(=O)NC(C)(C)C(=O)N[C@@H](CCC(=O)O)C(=O)N[C@@H](Cc1ccccc1)C(=O)N[C@H](C(=O)N[C@@H](CCC(=O)O)C(=O)N[C@@H](Cc1c[nH]c2ccccc12)C(=O)N[C@@H](CC(C)C)C(=O)N[C@@H](CCCCN)C(=O)N[C@@H](C)C(=O)N[C@H](C)C(=O)NCC(=O)N[C@@H](Cc1c[nH]cn1)C(=O)N1CCC[C@H]1C(=O)N[C@@H](CO)C(=O)NC(C)(C)C(=O)N[C@@H](CCCCN)C(=O)N1CCC[C@H]1C(=O)N1CCC[C@H]1C(=O)N1CCC[C@H]1C(=O)N[C@@H](CCCCN)C(N)=O)[C@@H](C)CC)C(=O)O)C(=O)O [SEQ ID NO: 11, H-Aib-Q-G-T-F-T-S-D-L-S-K-L-K[gGlu-gGlu-Palm]-E-E-Q-R-Q-Aib-E-F-I-E-W-L-K-A-dAla-G-H-P-S-Aib-K-P-P-P-K-NH2] (H-H[Aib]QGTFTSDLSKLK([γGlu-γGlu-Palmitoyl])EEQRQ[Aib]EFIEWLKA[dA]GHPS[Aib]KPPPK-NH2)
2 |  |  | >45 h | CCCCCCCCCCCCCCCC(=O)NCCOCCOCC(=O)N[C@@H](CCC(=O)N[C@@H](CCC(=O)NCCCC[C@H](NC(=O)[C@H](CC(C)C)NC(=O)[C@H](CCCCN)NC(=O)[C@H](CO)NC(=O)[C@H](CC(C)C)NC(=O)[C@H](CC(=O)O)NC(=O)[C@H](CO)NC(=O)[C@@H](NC(=O)[C@H](Cc1ccccc1)NC(=O)[C@@H](NC(=O)CNC(=O)[C@H](CCC(N)=O)NC(=O)C(C)(C)NC(=O)[C@@H](N)Cc1c[nH]cn1)[C@@H](C)O)[C@@H](C)O)C(=O)N[C@@H](CCC(=O)O)C(=O)N[C@@H](CCCCN)C(=O)N[C@@H](CCC(N)=O)C(=O)N[C@@H](CCCNC(=N)N)C(=O)N[C@@H](CCC(N)=O)C(=O)NC(C)(C)C(=O)N[C@@H](CCC(=O)O)C(=O)N[C@@H](Cc1ccccc1)C(=O)N[C@H](C(=O)N[C@@H](CCC(=O)O)C(=O)N[C@@H](Cc1c[nH]c2ccccc12)C(=O)N[C@@H](CC(C)C)C(=O)N[C@@H](CCCCN)C(=O)N[C@@H](C)C(=O)NCC(=O)NCC(=O)N[C@@H](Cc1c[nH]cn1)C(=O)N1CCC[C@H]1C(=O)N[C@@H](CO)C(=O)NC(C)(C)C(=O)N[C@@H](CCCCN)C(=O)N1CCC[C@H]1C(=O)N1CCC[C@H]1C(=O)N1CCC[C@H]1C(=O)N[C@@H](CCCCN)C(N)=O)[C@@H](C)CC)C(=O)O)C(=O)O [SEQ ID NO: 16, H-Aib-Q-G-T-F-T-S-D-L-S-K-L-K[gGlu-gGlu-AEEA-Palm]-E-K-Q-R-Q-Aib-E-F-I-E-W-L-K-A-G-G-H-P-S-Aib-K-P-P-P-K-NH2] (H-H[Aib]QGTFTSDLSKLK([γGlu-γGlu-AEEA-Palmitoyl])EKQRQ[Aib]EFIEWLKAGGHPS[Aib]KPPPK-NH2)
3 |  |  | >45 h | CCCCCCCCCCCCCCCC(=O)N[C@H](CCC(=O)NCCOCCOCC(=O)N[C@@H](CCC(=O)NCCCC[C@H](NC(=O)[C@H](CC(C)C)NC(=O)[C@H](CCCCN)NC(=O)[C@H](CO)NC(=O)[C@H](CC(C)C)NC(=O)[C@H](CC(=O)O)NC(=O)[C@H](CO)NC(=O)[C@@H](NC(=O)[C@H](Cc1ccccc1)NC(=O)[C@@H](NC(=O)CNC(=O)[C@H](CCC(N)=O)NC(=O)C(C)(C)NC(=O)[C@@H](N)Cc1c[nH]cn1)[C@@H](C)O)[C@@H](C)O)C(=O)N[C@@H](CCC(=O)O)C(=O)N[C@@H](CCCCN)C(=O)N[C@@H](CCC(N)=O)C(=O)N[C@@H](CCCNC(=N)N)C(=O)N[C@@H](CCC(N)=O)C(=O)NC(C)(C)C(=O)N[C@@H](CCC(=O)O)C(=O)N[C@@H](Cc1ccccc1)C(=O)N[C@H](C(=O)N[C@@H](CCC(=O)O)C(=O)N[C@@H](Cc1c[nH]c2ccccc12)C(=O)N[C@@H](CC(C)C)C(=O)N[C@@H](CCCCN)C(=O)N[C@@H](C)C(=O)N[C@H](C)C(=O)NCC(=O)N[C@@H](Cc1c[nH]cn1)C(=O)N1CCC[C@H]1C(=O)N[C@@H](CO)C(=O)NC(C)(C)C(=O)N[C@@H](CCCCN)C(=O)N1CCC[C@H]1C(=O)N1CCC[C@H]1C(=O)N1CCC[C@H]1C(=O)N[C@@H](CCCCN)C(N)=O)[C@@H](C)CC)C(=O)O)CC(=O)O [SEQ ID NO: 21, H-Aib-Q-G-T-F-T-S-D-L-S-K-L-K[gGlu-AEEA-gAAA-Palm]-E-K-Q-R-Q-Aib-E-F-I-E-W-L-K-A-dAla-G-H-P-S-Aib-K-P-P-P-K-NH2] (H-H[Aib]QGTFTSDLSKLK([γGlu-AEEA-Adipoyl(4R-palmitoylamino)])EKQRQ[Aib]EFIEWLKA[dA]GHPS[Aib]KPPPK-NH2)
4 |  |  | >45 h | CCCCCCCCCCCCCCCC(=O)N[C@H](CCC(=O)NCCOCCOCC(=O)N[C@@H](CCC(=O)NCCCC[C@H](NC(=O)[C@H](CC(C)C)NC(=O)[C@H](CCCCN)NC(=O)[C@H](CO)NC(=O)[C@H](CC(C)C)NC(=O)[C@H](CC(=O)O)NC(=O)[C@H](CO)NC(=O)[C@@H](NC(=O)[C@H](Cc1ccccc1)NC(=O)[C@@H](NC(=O)CNC(=O)[C@H](CCC(N)=O)NC(=O)C(C)(C)NC(=O)[C@@H](N)Cc1c[nH]cn1)[C@@H](C)O)[C@@H](C)O)C(=O)N[C@@H](CCC(=O)O)C(=O)N[C@@H](CCC(=O)O)C(=O)N[C@@H](CCC(N)=O)C(=O)N[C@@H](CCCNC(=N)N)C(=O)N[C@@H](CCC(N)=O)C(=O)NC(C)(C)C(=O)N[C@@H](CCC(=O)O)C(=O)N[C@@H](Cc1ccccc1)C(=O)N[C@H](C(=O)N[C@@H](CCC(=O)O)C(=O)N[C@@H](Cc1c[nH]c2ccccc12)C(=O)N[C@@H](CC(C)C)C(=O)N[C@@H](CCCCN)C(=O)N[C@@H](C)C(=O)NCC(=O)NCC(=O)N[C@@H](Cc1c[nH]cn1)C(=O)N1CCC[C@H]1C(=O)N[C@@H](CO)C(=O)NC(C)(C)C(=O)N[C@@H](CCCCN)C(=O)N1CCC[C@H]1C(=O)N1CCC[C@H]1C(=O)N1CCC[C@H]1C(=O)N[C@@H](CCCCN)C(N)=O)[C@@H](C)CC)C(=O)O)CC(=O)O [SEQ ID NO: 22, H-Aib-Q-G-T-F-T-S-D-L-S-K-L-K[gGlu-AEEA-gAAA-Palm]-E-E-Q-R-Q-Aib-E-F-I-E-W-L-K-A-G-G-H-P-S-Aib-K-P-P-P-K-NH2] (H-H[Aib]QGTFTSDLSKLK([γGlu-AEEA-Adipoyl(4R-palmitoylamino)])EEQRQ[Aib]EFIEWLKAGGHPS[Aib]KPPPK-NH2)
